Legend:
[1] = test system: lyso-PAF:acetyl-CoA acetyltransferase; details: cited from earlier work
[2] = test system: platelet cyclooxygenase; experiment: Thromboxane B2 synthesis by arachidonic acid-stimulated platelet-rich plasma in vitro; format: cell-based, male Sprague-Dawley rats; details: ASA/SA 1:1 w/w, TX B2
Text: Was done manually by the method of Brecher and Conkite (1953) using phase contrast microscopy (Balplan) with a 40×annulus, 40×phase objective, and 10×ocular (total of 400×), and a special platelet counting chamber (American Optical Corp., Buffalo, N.Y.) and dilution with 1% ammonium oxalate. The platelet-rich plasma (PRP) was adjusted by dilution with platelet-poor plasma (PPP) to give a final count of 1×10^9 platelets/ml.
Arachidonic acid (as the sodium salt, >99.0% pure) was obtained from Sigma Chemical Co. and a stock solution of 34.5 mM was prepared by dissolving in isotonic saline. 20 μl of the stock solution were added to 440 μl of PRP (400 μl of PRP and 20 or 40 μl of treatment solution ±20 μl of saline) to make a 23 fold dilution. The final concentration of AA in PRP was 1.5 mM.
EDTA solution was prepared by adding 2 gm disodium EDTA and 0.8 gm NaCl and were adjusted to pH 7.4 with NaOH and made up to a final volume of 100 ml in distilled water. ASA solution was prepared by dissolving 30 mg in 10 ml of isotonic saline to make a solution of 3 mg/ml.
950 μl of EDTA solution were added to 50 μl of ASA solution and the mixture was vortexed. 40 μl of the mixture were pipetted in the experiment test tubes to stop further prostaglandin production.
Platelet-rich plasma (PRP) was prepared from male Sprague-Dawley rats (300-325 gm). The blood was collected by heart puncture and added to 3.8% citrate solution, final volume 9:1, blood:citrate. The blood was centrifuged at 120×g (750 rpm) for 15 minutes at 4° C. to obtain PRP. The rest of the blood was spun at 1800×g (3000 rpm) for 10 minutes to get the PPP which was used later for dilution of the PRP to achieve the final desired platelet concentration of 1×10^9 platelets/ml. 400 μl of PRP, containing 4×10^8 platelets, were pipetted in polypropylene tubes and the following treatment groups were studied:
1--Baseline (-ve control) tubes: to measure the baseline production of Thromboxane B2 (TX B2) by platelets during the time of the experiment, 60 μl of saline were added and left for 10 minutes in a shaking water bath at 37° C.
2--Control (+ve control) tubes: 20 μl of arachidonic acid (AA) solution were added to achieve a final concentration of 1.5 mM and the tubes were incubated […].
3--ASA and/or SAM treatment tubes: 20 μl of ASA (final conc. 130 μg/ml), 20 μl of SAM solution (final conc. 40 μg/ml), 20 μl of ASA/SAM(L) solution (final conc. 130/40 μg/ml) or 20 μl of ASA/SAM(H) solution (final conc. 130/120 μg/ml) were added to PRP together with 20 μl of saline for 10 minutes, then 20 μl of AA solution were added for additional 10 minutes.
4--ASA/SA treatment: 20 μl of ASA/SA solution (final conc. 130/130 μg/ml) and 20 μl of saline were added to the tubes for 10 minutes before AA was added for further 10 minutes.
5--ASA/SA/SAM treatment: 20 μl of ASA/SA solution (130/130 μg/ml as final conc.) and 20 μl of […] in low (L) or high (H) concentrations (40 or 120 μg/ml, final conc.) were added simultaneously to PRP followed 10 minutes later by AA.
6--SAM/SA treatment: 20 μl of SAM solution (final conc. 40 μg/ml) and 20 μl of SA solution (final conc. 130 μg/ml) were added followed 10 minutes later by AA for additional 10 minutes.
Also, the effect of SAM when administered first to the platelets followed 10 minutes later by ASA was studied to know whether the effect of SAM is time dependent or not.
During the treatment, all the tubes were incubated at 37° C. in a shaking water bath. Ten minutes after the addition of AA, or saline (for the control tubes), the experiment was ended by addition of 40 μl of EDTA/ASA solution. The tubes were immediately centrifuged at 1800×g for 15 minutes at 4° C. to precipitate the platelets and 100 μl of the supernatant were obtained for estimation of their content of TX B2 using a specific radioimmunoassay (Amersham International) (vide infra).
Radioimmunoassay Procedure for Measurement of Thromboxane B2 and 6-keto PG F1alpha […]

[3] = test system: cyclooxygenase; details: in vitro; cited from earlier work
[4] = cited from earlier work

O=C(O)c1ccccc1O [SA, salicylic acid]
Effect on lyso-PAF:acetyl-CoA acetyltransferase [1]: inhibitory effect
Antagonism of ASA effect by SA [2]: ~ 70%
Effect on cyclooxygenase [3]: does not have the capacity to inhibit cyclooxygenase
Pharmacokinetics linearity ([4]; humans and rats): non-linear and dose-dependent
Distribution and plasma albumin binding ([4]; rat, in vivo): concentration-dependent distribution and plasma albumin binding
